From patent US5362412A, “Biodegradable bleach stabilizers for detergents” (priority 1991, dated 1994)

Tests used:
[1] = Perborate stabilization in the presence of Mn ions (peroxide remaining after hot storage, iodine/starch titration); conditions: pH 10.1
Protocol: (§1) The hydrogen peroxide responsible for the bleaching action in sodium perborate based laundry detergents is decomposed catalytically by transition metal ions such as Mn^II and Cu^II. This degradation can be prevented by complexing the metal ions.
(§2) The peroxide stabilizing effect of stabilizers in accordance with the invention was tested by measuring the peroxide present before and after storage in a hot aqueous solution which contains copper or manganese ions.
(§3) A solution of 0.2 g (2×10^-3 mols) sodium perborate monohydrate; 10.0 ml of hardness standard (3:1 CaCl2 :MgCl2, 1×10^-6 mols total); 3.0 ml of metal standard (5.4×10^-8 mol Mn^II or 4.7×10^-8 mols Cu^II); and 2.0 ml stabilizer solution (4.2×10^-7 mols stabilizer) was diluted to 100 ml with distilled water. The pH was adjusted to 10.1 and the solution was stirred at 70° C. for 20 minutes. Ten ml aliquots of the solution were tested after 10 minutes by first neutralizing the solution with sulfuric acid and then titrating with iodine and starch.
(§4) The percentage of peroxide remaining after storage was determined using a starch/iodine titration procedure.

[2] = Perborate stabilization in the presence of Cu ions (peroxide remaining after hot storage, iodine/starch titration); conditions: pH 10.1
Protocol: as §1, §2, §3, §4

[3] = Sodium perborate stabilization in wash liquors (bleaching of grape juice stained swatches); conditions: 5.2×10^-5 mol/l stabilizer, sodium perborate-monohydrate 0.8 g/l, 50° C., 15 minutes, pH 10.3; for ΔE (brightness of the swatches): Fe^III, Cu^II, Mn^II; for % Stain Removal: in duplicate
Protocol: The efficiency of the bleaching action of a laundry detergent containing the stabilizers of the invention was measured by washing white poly-cotton fabric swatches previously stained with grape juice. The test was carried out using the following detergent formulation: […]
Sodium Dodecyl Benzene Sulfonate
Grape juice stained, poly-cotton fabric swatches purchased from Scientific Services, Oakland, N.J., were washed in a Tergitometer at 50° C. for 15 minutes in a wash solution containing sodium perborate-monohydrate 0.8 g/l; 4.0 g/l of the zeolite-based detergent as described above; 100 ppm Hardness (3:1 Ca:Mg); 2 ppm Fe^III; 1 ppm Cu^II; and 1 ppm Mn^II (from AA standards); and 5.2×10^-5 mol/l stabilizer. The pH of the wash solution was 10.3. The swatches were then rinsed for 5 minutes in 25° C. water and air dried.
The efficiency of the bleaching action was determined by measuring the brightness (ΔE) of the swatches and the percentage of soil removed from the swatches.
ΔE was calculated in accordance with ASTM E 308-66(81) standards, using the following formula: [formula] wherein L=Lightness 0 black, 100 white a=Redness if +, Greenness if -, Gray is 0 b=Yellow if +, Blue if -, Gray is 0
Δ measurements are before and after washing
Percent stain removal was calculated in duplicate in accordance with ASTM D3050-75 standards, using the following formula: [formula] where D=reflectance by detergent head with green filter (brightness).

[4] = conventional tests; cited from earlier work
[5] = 5.4×10^-8 mol Mn^II, 4.2×10^-7 mols stabilizer in 100 ml, 70° C.
[6] = 4.7×10^-8 mols Cu^II, 4.2×10^-7 mols stabilizer in 100 ml, 70° C.

Structure (SMILES) | Stability in Presence of Mn^2 Ions, % Remaining [1] [%] | Stability in Presence of Cu^+2 Ions, % Remaining [2] [%] | ΔE (brightness of the swatches) [3] | % Stain Removal [3] [%] | Stability in Presence of Mn^2 Ions, % Remaining [1, 5] [%] | Stability in Presence of Cu^+2 Ions, % Remaining [2, 6] [%] | biodegradability [4]
O=C(O)CNC(CC(=O)O)C(=O)O (stereo not drawn) [AspMA, Aspartic acidN-monoacetic acid] | 21.5 | 0.0 | 87.6 | 84.4 | – | – | –
O=C(O)CSC(CC(=O)O)C(=O)O (stereo not drawn) [CMMS, Carboxymethylmercaptosuccinic acid] | – | – | 102.3 | 84.5 | 54.5 | 31.3 | –
CC(CN(CC(=O)O)CC(=O)O)N(CC(=O)O)CC(=O)O (stereo not drawn) [PDTA, propylenediaminetetraacetic acid] | – | – | – | – | – | – | insufficiently biodegradable
O=C(O)CC(NC(CC(=O)O)C(=O)O)C(=O)O (stereo not drawn) [ISA, Iminodisuccinic acid] | – | – | 92.7 | 81.4 | 13.6 | 79.0 | –
O=C(O)CN(CC(=O)O)CC(O)CN(CC(=O)O)CC(=O)O [HPDTA, hydroxypropylenediaminetetraacetic acid] | – | – | – | – | – | – | insufficiently biodegradable
O=C(O)CN(CCN(CC(=O)O)CC(=O)O)CC(=O)O [EDTA, Ethylenediaminetetraacetic acid, reference compound] | – | – | 86.2 | 79.7 | 87.5 | 82.8 | insufficiently biodegradable
O=C(O)CC(C(=O)O)N(CC(=O)O)CC(=O)O (stereo not drawn) [AspDA, Aspartic acidN,N-diacetic acid] | – | – | 93.9 | 83.7 | 25.6 | 28.6 | –
O=C(O)CCN(CC(=O)O)CC(=O)O [BADA] | – | – | 98.0 | 83.3 | 45.0 | 50.4 | –
